What was measured:
[1] = target: T1, serotonin-2 (HT-2) receptor (Rattus norvegicus, UniProt P14842); test: serotonin-2 (HT-2) receptor binding, inhibition of specific binding of ^3 H-ketanserin in frontal/parietal cortex membranes; design: species or system male Sprague-Dawley rats; details: specific binding of ^3 H-ketanserin (0.4 nM)
T1 construct: membrane preparations of frontal/parietal cortex from male Sprague-Dawley rats; from tissue; host or cells: rat frontal/parietal cortex membranes (male Sprague-Dawley)
Protocol: The serotonin-2 (HT-2) receptor binding properties, indicative of the serotonin-2 antagonist activity of the compounds of the invention, are determined in vitro by determining their ability to inhibit the specific binding of ^3 H-ketanserin, essentially as described by Battaglia et al in Life Sciences 33, 2011 (1983), in membrane preparations of frontal/parietal cortex from male Sprague-Dawley rats (200-225 g). IC50 values, representing the concentration of compound required to displace 50% of specific binding of 0.4 nM of ^3 H-ketanserin, are determined by log-logit analysis of the specific binding data. Selectivity for the HT-2 receptors can be determined by also measuring specific binding to serotonin-1 (HT-1) receptors, e.g. according to Middlemiss, D. N. and Fozard, J. R. in Eur. J. Pharmacol. 90, 151 (1980).

serotonin-2 receptor = target: T2, serotonin-2 receptor (Rattus norvegicus, UniProt P14842); test: head twitch test, inhibition of the head twitch induced by 5-hydroxytryptophane in the rat; format: in vivo, Male Wistar rats
T2 construct: Male Wistar rats (120-180 g) are fasted for 18 hr prior to testing; from tissue; host or cells: whole living animal (male Wistar rat), endogenous receptor of the central nervous system
Protocol: The serotonin-2 antagonism or blockade is determined in vivo by measuring the inhibition of the head twitch induced by 5-hydroxytryptophane (the metabolic precursor of serotonin) in the rat. The head twitch test for assessing central nervous system serotonin-2 receptor antagonism in the rat is described in Neuropharmacology 16, 663 (1977) and in J. Pharmacol. Exp. Ther. 228, 133 (1984). The test is carried out as follows:
Male Wistar rats (120-180 g) are fasted for 18 hr prior to testing but allowed water ad libitum. All animals are pretreated with the peripheral decarboxylase inbihitor alpha-methyl-DOPA hydrazine (carbidopa 25 mg/kg i.p., 4.0 ml/kg) followed 30 min later by 5-hydroxytryptophan (5HTP 100 mg/kg s.c., 4.0 ml/kg). Ninety minutes after receiving 5HTP, the rats are placed individually in plexiglas observation cages and the frequency of head twitches for each animal is counted over a 10 min observation period. The test compound or vehicle is administered at either 0.5 hr at 1.0 ml/kg i.p. or at 1, 2 or 4 hr at 10 ml/kg p.o. prior to the observation period. ED50 values are determined by probit analysis.

T2 sequence (P14842 whole entry): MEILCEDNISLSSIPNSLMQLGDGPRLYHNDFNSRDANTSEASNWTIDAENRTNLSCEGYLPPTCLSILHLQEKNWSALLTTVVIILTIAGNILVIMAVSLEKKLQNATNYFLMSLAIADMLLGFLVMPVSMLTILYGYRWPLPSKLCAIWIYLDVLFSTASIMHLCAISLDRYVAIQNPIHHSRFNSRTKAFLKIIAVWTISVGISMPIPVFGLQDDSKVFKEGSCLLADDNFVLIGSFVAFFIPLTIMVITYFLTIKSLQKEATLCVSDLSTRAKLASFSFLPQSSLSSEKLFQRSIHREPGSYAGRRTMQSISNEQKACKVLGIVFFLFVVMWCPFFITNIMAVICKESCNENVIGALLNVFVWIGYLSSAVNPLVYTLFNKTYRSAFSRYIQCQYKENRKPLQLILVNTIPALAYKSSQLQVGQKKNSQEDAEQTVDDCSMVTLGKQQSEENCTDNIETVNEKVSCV
T1 sequence (P14842 whole entry): as above

Q: Which IC50 [1] does the source give for `CCSC[C@H]1CN(C)C[C@H]2c3cc(OC)cc(Br)c3OC[C@H]12` (relative stereo) [Example 4, (±)-[4R*,4aS*,10bR*]-7-Bromo-4-(ethylthiomethyl)-1,3,4,4a,5,10b-hexahydro-9-methoxy-2-methyl-2H-[1]benzopyrano[4,3-c]pyridine] here?
A: The IC50 was 22 nM.

Q: What about the ED50 (serotonin-2 receptor; 0.5 h, ip (at 30 minutes)) of the same compound?
A: Its ED50 is 1.1 mg/kg.

Q: What about the ED50 (serotonin-2 receptor; po (at 1 hour)) of the same compound?
A: Its ED50 is 0.71 mg/kg.
